Results taken from patent publication US20120035187A1 (priority 2009, published 2012).
Marks after values point to notes of the source that are not given here.

What was measured:
[1] = tested on: primary neuron (neuron, astrocyte and microglia) prepared from brain cortex of a rat fetus; assay: Amyloid β fragment disorder in primary neuron; type: cell-based; details: concrete data not shown
Text: Though concrete data is not shown, using primary neuron (neuron, astrocyte and microglia) prepared from brain cortex of a rat fetus in place of PC12-HS cells, the influence of NK-4, NK-26, NK-234, NK-19 and NK-150 on amyloid β fragment disorder and hydrogen peroxide disorder was investigated.

PC12-HS cells = assay: Cytotoxicity by amyloid β fragment, cell survival (Evaluation C); type: cell-based; details: for Cell survival percentage (%): PC12-HS cells + amyloid β fragment
Method: A plurality of peptide fragments (called “AMYLOID β FRAGMENT” commercialized by AnaSpec, Inc., CA, USA, each peptide having the amino acid sequence of SEQ ID NO:1), which have an amino acid sequence positioning from 25th to 35th from the N-terminus of amyloid R peptide with human origin and have been recognized as a main factor of neurocyte death in Alzheimer's disease, were diluted with phosphate buffered saline (PBS) to give a concentration of 2 mM, and used after being aged at 37° C. for six hours to coagulate them to increase their cytotoxicity before use. […] Viability (%) of cells in each well was determined and shown in Table 1 by calculating a relative value when the fluorescent intensity of the control was regarded as 100%. While, the supernatant of cell culture, which had been cultured under the same conditions as above, was removed, and the resulting cells were fixed by the addition of 1% by volume of glutaraldehyde, which had been prepared by diluting with PBS, in a volume of 100 μl/well for 30 min. Thereafter, the cells were stained with […] Hoechst 33258 dye commercialized by SIGMA Corporation, Tokyo, Japan, for five min, observed at a magnitude corresponding to a visual filed containing about 100 cells under a phase contrast microscope and a fluorescent microscope, and counted. The occupied percentage (%) of cells with apoptosis against the total cells in one visual field was calculated and the data was also shown in Table 1. The judgment of cells with apoptosis was made with an index of fragmentation of cell nuclei and chromatin aggregation within the nuclei.
Then, the effect of the above-compounds' concentrations on the cytotoxicity by amyloid β fragment was further investigated. The above 6-compounds and NK-4 were used as test samples, and the protective effects of these compounds against cytotoxicity by amyloid β fragment were evaluated by the same conditions as used in Evaluation C in Experiment 3, except for adding each compound to a well inoculated with PC12-HS cells to give a final concentration as shown in Table 7.

[2] = tested on: ICR mice injected with amyloid β fragment; assay: Novelty object recognition test, mouse injected with amyloid β fragment (Alzheimer's dementia model); type: in vivo; details: for adverse effect / novelty object recognition test (in words): mice injected with amyloid β fragment; for adverse effect: i.p. once a day over 13 days; for novelty object recognition test (in words): vs amyloid β fragment alone; for Index for object discrimination: mouse administered with amyloid β fragment
Method: One hundred of ICR mice (male, five weeks of age, body weight of 25 to 30 g, commercialized by Charles Liver Laboratories Japan Inc., Kanagawa, Japan) were randomly divided into 10 groups, each consisting 10 heads, and raised separately until the experiment was terminated. […] A micro syringe with an […] stainless needle (3 mm length) was used for injection. The injection site was determined by confirming the staining at right-and-left lateral ventricles of the frontal section, dorsal third ventricle, and ventral third ventricle by injecting an Evans' Blue solution (0.3 μg/0.3 μl) in place of the solution of amyloid β fragment.
The test, which consists of three parts of acclimation, practicing trial, and holding trial, was operated at six to eight days after administering amyloid β fragment into the subjects' ventricles. The experiment apparatus (40 cm in depth, 30 cm in width and 30 cm in height), in which the floor was paved with wood tips, was placed in a noiseless place under an illumination of about 1,000 lux. On the 6th day after the administration, a mouse was placed in the center of the apparatus without seeking object and allowed to seek freely for 10 minutes (acclimation). After 24 hours (on the 7th day after the administration), two objects (objects A and B) were placed in the apparatus at a position 10-cm apart from the lateral side, and the mouse was placed in the center of the apparatus and allowed to seek freely for 10 minutes (practicing trial). After 24 hours (on 8th day after the administration), object A (memorized object) sought by the mouse on the previous day was placed at the same position of object A as placed on the previous day, and object C (novel object) different from object B used on the previous day […] of object B as placed on the previous day, and then the mouse was placed in the center of the apparatus and allowed to seek freely for 10 minutes (holding trial). When the mouse directed its muffle close to the object within 2 cm apart from the object or allowed its muffle to contact with the object, the mouse was judged to be seeking, and the seeking time thereof was measured with a stopwatch. The object discrimination index [={(seeking time for novel object)−(seeking time for memorized object)}/{(seeking time for novel object)+(seeking time for memorized object)}] was calculated. The object discrimination index means the ratio of increase in seeking time for novel object to the total seeking time, which becomes longer when the memory of the once sought object is more strongly held and becomes shorter when the memory is more weakly held.

[3] = Hydroxyl radical-scavenging activity, ESR (Fenton reaction)
Method: Stock solutions, prepared by dissolving NK-4, NK-19, NK-53, NK-100, and NK-557 in DMSO, were respectively diluted with refined water to give concentrations of 3-folds higher than those in Table 14 and used as test sample solutions. As a positive control, a neuroprotectant, “edaravone”, commercialized as “RADICUT®” containing 3-methyl-1-phenyl-2-pyrazoline-5-one as an effective ingredient by Mitsubishi Tanabe Pharma Corporation, Osaka, Japan, was diluted with refined water to give a concentration of 3-folds higher than that in Table 14 for use. To 50 μl of refined water, 50 μl of 89 mM DMPO ([…]) commercialized by Dojindo Laboratories, Kumamoto, Japan, 50 μl of the test sample solution, and 50 μl of an aqueous solution containing 1 mM hydrogen peroxide, 1 mM FeSO4, and 1 mM DTPA, commercialized by Wako Pure Chemical Industries, Osaka, Japan, were added, mixed for 10 seconds using a vortex mixer and allowed to react in an incubator controlled at 37° for 40 seconds. After 30 seconds from completion of the reaction, the resulting reaction mixture was subjected to ESR measurement. A control solution was prepared by the same method as above except for using 50 μl of a diluted edaravone solution as a substitute for the test sample solution, and subjected to ESR measurement.
The reaction mixture for measuring hydroxyl or peroxyl radicals was poured into a flat quartz cell for ESR, set to “FREE RADICAL MONITOR JES-FR30”, an ESR apparatus commercialized by JOEL Ltd., Tokyo, Japan, and ESR was measured according to manual manner. The residual ratio of peroxyl radical (%) was determined as a relative value by defining the ESR value, obtained by using 0.1 M phosphate buffer as a substitute of the test sample solution, as 100. The results are in Tables 14 and 15. […] Therefore, the IC50 of edaravone was determined by another test using its higher concentration, and the result is also shown in Table 14. The conditions of the ESR measurement were set as follows: […]

[4] = final concentration of compound 12.5 ng/ml
[5] = final concentration of compound 50 ng/ml
[6] = final concentration of compound 200 ng/ml
[7] = final concentration of compound 800 ng/ml
[8] = 500 μg/kg body weight i.p. once a day
[9] = concentration of compound 2.5 μg/ml
[10] = concentration of compound 3.13 μg/ml
[11] = concentration of compound 6.25 μg/ml
[12] = concentration of compound 12.5 μg/ml

| SMILES | suppressing amyloid β fragment disorder [1] | Cell survival percentage (%) (PC12-HS cells; [4]) | Cell survival percentage (%) (PC12-HS cells; [5]) | Cell survival percentage (%) (PC12-HS cells; [6]) | Cell survival percentage (%) (PC12-HS cells; [7]) | adverse effect [2] | Index for object discrimination ([2]; dose 500 μg/kg body weight) | IC50 (μg/ml) of hydroxyl radical-scavenging activity [3] [µg/mL] | Residual ratio of hydroxyl radical (%) [3, 9] [%] | Residual ratio of hydroxyl radical (%) [3, 10] [%] | Residual ratio of hydroxyl radical (%) [3, 11] [%] | Residual ratio of hydroxyl radical (%) [3, 12] [%] | other results |
| --- | --- | --- | --- | --- | --- | --- | --- | --- | --- | --- | --- | --- | --- |
| CCN1C=CC(=CC=C(C=Cc2cc[n+](CC)c3ccccc23)c2cc[n+](CC)c3ccccc23)c2ccccc21.[I-].[I-] [NK-4] | actions of suppressing | 34 ± 1 | 69 ± 7 | 122 ± 32 | 89 ± 4 | No adverse effect | 0.41 ± 0.08 | 6.7 | 15 ± 1 | 67 ± 1 | 49 ± 2 | 26 ± 1 | Survibal percentage of cells when admixed with cytotoxic factor (%) Amyloid β fragment (PC12-HS cells; NK-4 200 ng/ml): 129 ** %; Survibal percentage of cells when admixed with cytotoxic factor (%) Amyloid β fragment (PC12-HS cells; NK-4 1000 ng/ml): 97 ** %; Survibal percentage of cells when admixed with cytotoxic factor (%) Amyloid β fragment (PC12-HS cells; NK-4 5000 ng/ml): 97 ** %; minimum concentration exerting protection action against injury through amyloid β fragment (PC12-HS cells; PC12-HS cells): 40 ng/mL; Survibal percentage of cells when admixed with cytotoxic factor (%) Amyloid β fragment (PC12-HS cells; PC12-HS cells, 50 μM amyloid β fragment, 3 days, NK-4 40 ng/ml): 89 ** %; novelty object recognition test (in words) [2, 8]: significant improvement; Index for object discrimination ([2]; dose 50 μg/kg body weight): 0.15 ± 0.07 |
| CCCN1C=CC(=CC=C(C=Cc2cc[n+](CCC)c3ccccc23)c2cc[n+](CCC)c3ccccc23)c2ccccc21.[I-].[I-] [NK-234] | actions of suppressing |  |  |  |  | No adverse effect | 0.29 ± 0.07 |  |  |  |  |  | novelty object recognition test (in words) [2, 8]: significant improvement |
| CC[n+]1ccccc1/C=C/c1ccc(N(C)C)cc1 [NK-557] |  | 36 ± 3 | 114 ± 9 | 94 ± 11 | 73 ± 1 |  |  | 6.2 | 15 ± 6 | 71 ± 1 | 50 ± 1 | 30 ± 1 |  |
| CCCCN1C=C/C(=C/C=C(/C=C/c2cc[n+](CCCC)c3ccccc23)c2cc[n+](CCCC)c3ccccc23)c2ccccc21 [NK-26] | actions of suppressing |  |  |  |  | No adverse effect | 0.11 ± 0.08 |  |  |  |  |  | novelty object recognition test (in words) ([2]; 50 μg/kg body weight i.p. once a day): significant improvement; Index for object discrimination ([2]; dose 5 μg/kg body weight): 0.05 ± 0.08; Index for object discrimination ([2]; dose 50 μg/kg body weight): 0.19 ± 0.07 |
| CCN1/C(=C/C=C(/C=C/c2sc3ccccc3[n+]2CC)c2sc3ccccc3[n+]2CC)Sc2ccccc21.[I-].[I-] [NK-100] |  | 47 ± 2 | 88 ± 12 | 60 ± 5 | 44 ± 4 |  |  | 6.6 | 8 ± 0 | 68 ± 1 | 51 ± 1 | 32 ± 1 |  |
| COc1ccc2oc(/C=C/c3ccc(N(C)C)cc3)[n+](C)c2c1 [NK-1516] |  | 34 ± 5 | 29 ± 5 | 31 ± 3 | 70 ± 11 |  |  |  |  |  |  |  |  |
| CN(C)c1ccc(/C=C/c2oc3ccccc3[n+]2C)cc1 [NK-528] |  | 40 ± 9 | 36 ± 4 | 50 ± 10 | 111 ± 7 |  |  |  |  |  |  |  |  |
